Experimental data published in patent US20060241066A1, “Decoy composition for treating and preventing inflammatory disease” (priority 2002, published 2006).
Entries after “also recorded” stand apart in the source; their conditions may differ.

Legend:
[1] = system: type II collagen arthritis model in apes; assay: Type II collagen arthritis model in apes, intraarticular administration; format: in vivo, apes (macaque); settings: for effective ratio: NF-κB decoy 10 mg/joint at two-week intervals, type II collagen articulitis model in apes; for change of the joints on X-ray photographs (synovial inflammation, joint swelling, joint cartilage, osteoclasis), FIG. 1: simian collagen arthritis model, radiograph
osteoarthritis rat model = assay: Osteoarthritis model using rats, intraarticular administration, joint section slides (FIG. 2); settings: listed as NF-κB decoys

Row | Substance | effective ratio [1] | change of the joints on X-ray photographs (synovial inflammation, joint swelling, joint cartilage, osteoclasis), FIG. 1 [1] | change of the joints on X-ray photographs (synovial inflammation, joint swelling, joint cartilage, osteoclasis), FIG. 1 ([1]; listed as scrambled decoys) | change of the joints on X-ray photographs (synovial inflammation, joint swelling, joint cartilage, osteoclasis), FIG. 1 ([1]; listed as decoy of the present invention) | change of the joints on X-ray photographs (synovial inflammation, joint swelling, joint cartilage, osteoclasis), FIG. 1 ([1]; listed as decoys of the present invention) | effect on joint (section slide photographs), FIG. 2 (osteoarthritis rat model; administration of 10 mg of decoy) | effect on joint (section slide photographs), FIG. 2 (osteoarthritis rat model; administration of 30 mg of decoy) | effect compared with that of steroid, FIG. 2 (osteoarthritis rat model; decoy 10 mg and 30 mg versus steroid)
1 | 5′-CATGTCGTCACTGCGCTCAT-3′ (SEQ ID NO: 7); and 5′-ATGAGCGCAGTGACGACATG-3′ (SEQ ID NO: 8) (listed as DNA, chemistry not given here) [scrambled decoy, reference compound] | 1/4 | no effects | No effects | – | – | – | – | –
2 | 5′-CCTTGAAGGGATTTCCCTCC-3′ (SEQ ID NO: 1) (chemistry not given here) [NF-κB decoy] | 3/4 | – | – | significant improvements | significant improvement | significant improvement; also recorded: significant effects | eliminated the joint inflammation; also recorded: destroyed the articulitis | exceeded that of steroids; also recorded: beyond those attained by the steroid
